The results in this text go back to ChEMBL document CHEMBL6092184, “Talauromides A-G, Nitrogen-Containing Heptacyclic Oligophenalenone Dimers from the Soil Fungus Talaromyces stipitatus BMC-16” (2024).

Broadly, the inhibition in vivo is the drop in the measured response relative to a control, in per cent.

The nature of assay [1]: In-vivo inhibition of BIO-induced Wnt/beta-catenin signaling pathway in zebrafish embryo assessed as reversal of eyeless phenotype to small and normal like eyes at 20 uM measured at 48 hrs post fertilization. In kind it is functional. The note with it: Danio rerio.
The subject of the next assay is HEK293T. In words: Inhibition of Wnt/beta-catenin signaling pathway in HEK293T cells assessed as downregulation of BIO-induced nonphosphorylated beta-catenin level at 20 uM incubated for 12 hrs by immunoblotting analysis. It counts as cell-based. The note with it: Homo sapiens. (A western blot detects proteins with antibodies after separation by electrophoresis.)

The source made the active and inactive calls. The rule behind the calls is not given here.

Turning to `CC(=O)O[C@H]1[C@@H]2C(=O)c3c(C)cc(O)c4c3[C@@]1(COC4=O)c1c(O)c3c4c(c(O)cc(C)c4c12)C(=O)O3`, in assay [1], the inhibition in vivo at 20 µM amounted to 80%. In addition, the inhibition result in the assay with HEK293T is “Active”.

Consider `CC(=O)O[C@H]1[C@@H]2C(=O)c3c(C)cc(O)c4c3[C@@]1(COC4=O)c1c(O)c3c4c(c(O)cc(C)c4c12)C(=O)OC3`, for which the inhibition in vivo at 20 µM in assay [1] came out at 100%. Moreover, the inhibition entry in the assay on HEK293T is “Active”.

As to `Cc1cc(O)c2c3c1C(=O)[C@@H]1C4=C(C(=O)c5cn(CCCC(=O)O)c(=O)c6c(O)cc(C)c4c56)[C@@]3(COC2=O)[C@H]1O`, the inhibition in vivo at 20 µM in assay [1] was found to be 96.6%. Further, in the assay with HEK293T, the inhibition entry is “Active”.
